Measurements taken from patent publication US9550792B2, “Polycyclic substituted pyrazole kinase activity inhibitors and use thereof” (priority 2013, dated 2017).
Values after ≈ are worked out from the molar mass of the structure shown. Like-named read-outs stand apart in the source and are kept apart here.

Tests used:
Aurora A = molecular target: T1, Aurora A (Homo sapiens, UniProt O14965); test: Inhibitory activity to Aurora A (FRET); type: biochemical; settings: read-out: Aurora A inhibition % (1 × 10^−6 mol/L)
T1 construct: purchased
T1 sequence (O14965 1-403): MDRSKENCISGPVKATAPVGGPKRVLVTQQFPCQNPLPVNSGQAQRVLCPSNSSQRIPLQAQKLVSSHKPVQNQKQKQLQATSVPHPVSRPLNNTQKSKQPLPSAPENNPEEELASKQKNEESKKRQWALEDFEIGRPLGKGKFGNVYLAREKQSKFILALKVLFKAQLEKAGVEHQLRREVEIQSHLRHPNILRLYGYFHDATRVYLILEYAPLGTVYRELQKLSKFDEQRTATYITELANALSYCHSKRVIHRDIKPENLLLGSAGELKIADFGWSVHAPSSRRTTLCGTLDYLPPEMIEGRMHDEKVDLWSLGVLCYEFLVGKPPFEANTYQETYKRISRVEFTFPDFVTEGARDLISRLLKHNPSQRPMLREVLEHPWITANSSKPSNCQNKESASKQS
Protocol: The inhibitory activities of the synthesized compounds for Aurora A is determined by fluorescence resonance energy transfer (FRET) and were compared with the positive control drug so as to screen the compounds with better activities. Aurora A was purchased in the form of a kit or obtained through purification. Procedures: Aurora A is diluted to a suitable concentration with kinase diluent. The kinase reaction mixture contains Aurora A, peptide substrate, HEPES (pH7.5), BRIJ-35, MgCl2 and EDTA. Aurora A phospho-peptide substrate is used as the control of 100% phosphorylation and ATP-free as the control of 0% phosphorylation. After 1 h, the diluted Development Reagent A is added into the reaction system. Then the reaction is allowed to proceed for 1 h and then quenched with Stop Reagent. The excitation wavelength is 400 nm and the fluorescence intensity is detected at 445 nm (coumarin) and 520 nm (fluorescein). The inhibitions of the tested compounds are calculated according to the formula.

[1] = test system: colon cancer cell line HCT116; test: Anti-tumor activity in vitro, MTT method; type: cell-based; settings: Homo sapiens
[2] = test system: liver cancer cell line 7721; test: Anti-tumor activity in vitro, MTT method; type: cell-based; settings: 48 h, read-out: 7721 (IC50/μM)
lung cancer cell H1299 = test: Anti-tumor activity in vitro, MTT method; type: cell-based; settings: Homo sapiens, read-out: H1299 (IC50/μM)
S180 grafting tumor = test: Inhibition to S180 grafting tumor in animal; type: in vivo, ICR mouse; settings: 15 mg/kg intravenously once a day, 7 administrations
Protocol: ICR mouse was inoculated with solid tumor according to tumor grafting process (tumor piece was weighed under sterile condition, homogenized with glass tissue homogenizer, placed within a sterile container, to which was added physiological saline to prepare 1:3 cell suspension. The container was placed on ice and aspirated and the cells were mixed homogeneously before each aspiration. Each mouse was inoculated subcutaneously 0.2 mL at right fore axilla). […] The mice were administered intravenously, once a day and 7 administrations in total. The administration volume was 0.4 ml/20 g. The mice bearing tumor were sacrificed 8 days after inoculation (d8). The tumor tissue was separated and weighed. The data was analyzed with statistics method (t-test).
Dose setting: 5 groups in total.

[3] = test system: breast cancer cell line MDA231; test: Anti-tumor activity in vitro, MTT method; settings: Homo sapiens, MDA-MB-231, 48 h, read-out: MDA231 (IC50/μM)
Protocol: (§2) MTT method: the dehydrogenase associated with NADP in the mitochondria of living cell is capable of reducing exogenous MTT into insoluble bluish violet crystal (Formazan), which is precipitated in the cell. […] DMSO or Triple liquid (10% SDS-5% isobutanol-0.01 mol/L HCl) is used to dissolve the crystal in the cell. The OD determined at 570 nm by a microplate reader can reflect the amount of the living cell indirectly.
(§3) The crystal is dissolved with DMSO and the detection is performed on a microplate reader.

[4] = test system: stomach cancer cell line MGC803; test: Anti-tumor activity in vitro, MTT method; settings: Homo sapiens, MGC-803, 48 h, read-out: MGC803 (IC50/μM)
Protocol: as §2, §3

[5] = test system: stomach cancer cell line BSG823; test: Anti-tumor activity in vitro, MTT method; settings: 48 h, read-out: BSG823 (IC50/μM)
Protocol: as §2, §3

leukemia cell line K562 = test: Anti-tumor activity in vitro, MTT method; settings: Homo sapiens, K562, 48 h, read-out: K562 (IC50/μM)
Protocol: as §2, §3

[6] = test system: breast cancer cell line MCF-7; test: Anti-tumor activity in vitro, MTT method; settings: Homo sapiens, MCF7, 48 h, read-out: MCF7 (IC50/μM)
Protocol: as §2, §3

[7] = test system: resistant breast cancer cell line MCF-7; test: Anti-tumor activity in vitro, MTT method; settings: Homo sapiens, MCF7, 48 h, read-out: Resistant MCF7 (IC50/μM)
Protocol: as §2, §3

leukemia cell line NB4 = test: Anti-tumor activity in vitro, MTT method; settings: 48 h, read-out: NB4 (IC50/μM)
Protocol: as §2, §3

[8] = test system: liver cancer cell line HEPG2; test: Anti-tumor activity in vitro, MTT method; settings: Homo sapiens, HepG2, 48 h, read-out: HEPG2 (IC50/μM)
Protocol: as §2, §3

[9] = test system: umbilical cord vein endothelium cell line HUVEC; test: Anti-tumor activity in vitro, MTT method; settings: Homo sapiens, 48 h, read-out: HUVEC (IC50/μM)
Protocol: as §2, §3

[10] = test system: lung cancer cell line A549; test: Anti-tumor activity in vitro, MTT method; settings: Homo sapiens, A549, 48 h, read-out: A549 (IC50/μM)
Protocol: as §2, §3

CDK2/A = molecular target: T2, CDK2/A (Homo sapiens, UniProt P24941); test: Inhibitory activity to CDK2 (FRET); type: biochemical; settings: read-out: CDK2 inhibition % (1 × 10^−6 mol/L)
T2 construct: purchased
Protocol: CDK2/A was purchased in the form of a kit or obtained through purification.
Procedures: CDK2/A is diluted to a suitable concentration with kinase diluent. The kinase reaction mixture contains CDK2/A, peptide substrate, HEPES (pH7.5), BRIJ-35, MgCl2 and EDTA. CDK2 phospho-peptide substrate is used as the control of 100% phosphorylation and ATP-free as the control of 0% phosphorylation. After 1 h, the diluted Development Reagent A is added into the reaction system. Then the reaction is allowed to proceed for 1 h and then quenched with Stop Reagent. […] The inhibitions of the tested compounds are calculated according to the formula.

[11] = test system: Candida albicans - ATCC 36082; test: Antifungal activity, modified broth microdilution; type: cell-based; settings: Candida albicans, ATCC36082; 48 hours at 35, approximately 50% reduction of growth
Protocol: (§1) The test microorganisms are maintained on Sabourahd Dextrose Agar slant at 4[…]. Singlet suspension of each microorganism is prepared by growing the yeast overnight at 27[…] on a rotating drum in yeast-nitrogen base broth (YNB) with amino acids (Difco, Detroit, Mich.), (pH 7.0) and 0.05 morpholine propanesulphonic acid (MOPS). […] The activity of the test compound is determined using a modified broth microdilution technique. […] Well 12 serves as a growth control. […] Inoculated plate is incubated for 48 hours at 35 °C. […] Minimal Cytolytic Concentration (MCC) is determined by subculturing all wells from the 96-well plate onto a Sabourahd Dextrose Agar (SDA) plate, incubating for 1-2 days at 35 °C, and then checking viability.

Candida parapsilosis = test: Antifungal activity, modified broth microdilution; type: cell-based; settings: Lodderomyces parapsilosis; 48 hours at 35, approximately 50% reduction of growth
Protocol: as §1

Candida tropicalis = test: Antifungal activity, modified broth microdilution; type: cell-based; settings: Candida tropicalis; 48 hours at 35, approximately 50% reduction of growth
Protocol: as §1

Cryptococcus neoformans = test: Antifungal activity, modified broth microdilution; type: cell-based; settings: Cryptococcus neoformans; 48 hours at 35, approximately 50% reduction of growth
Protocol: as §1

Phytophthora infestans = type: in vivo
[12] = HCT-116, 48 h, read-out: HCT-116 (IC50/μM)
[13] = HCT-116, MTT, 48 h, first cell table, read-out: HCT-116 (IC50/μM)

SMILES | inhibition at 1 µM (Aurora A) [%] | IC50 [1, 12] [µM] | IC50 [2] [µM] | IC50 (lung cancer cell H1299; NCI-H1299, 48 h) [µM] | inhibition at 1 µM (CDK2/A) [%] | IC50 [1, 13] [µM] | IC50 ([2]; MTT) [µM] | IC50 (lung cancer cell H1299; NCI-H1299, MTT, 48 h) [µM] | melting point [°C] | further results
O=C(NC1CCNCC1)c1n[nH]cc1NC(=O)c1c(Cl)cccc1Cl [AT-7519, reference compound] | 38 | 21.2 | > 200 | 9.32 |  |  |  |  |  | IC50 ([1]; HCT-116, 48 h, read-out: HCT116 (IC50/μM)): 2.63 µM; Body weight After administration (S180 grafting tumor): 23.83 ± 3.39 g; Tumor inhibition (S180 grafting tumor; d8): 32.45%; Tumor weight (S180 grafting tumor; d8): 0.80 ± 0.27 g; IC50 [3]: 2.58 µM; IC50 [4]: 1.93 µM; IC50 [5]: 16.7 µM; IC50 (leukemia cell line K562): 3.24 µM; IC50 [6]: 2.04 µM; IC50 [7]: 22.1 µM; IC50 (leukemia cell line NB4): 0.62 µM; IC50 [8]: 53.6 µM; IC50 [9]: 5.67 µM; IC50 [10]: 53.5 µM
O=C(Nc1ccc(CN2CCOCC2)cc1)c1n[nH]cc1Nc1ncnc2occc12 [Compound I-22, 4-(4-furo[2,3-d]pyrimidinylamino)-N-(4-((4-morpholinyl)methyl)phenyl)-1H-3-pyrazolecarboxamide] | 48.5 |  |  |  | 66.3 | 8.63 | 18.1 | 10.3 | > 280 | 
CN1CCN(Cc2ccc(NC(=O)c3n[nH]cc3Nc3nccc4ccsc34)cc2)CC1 [Compound I-29, 4-(7-thieno[2,3-c]pyridylamino)-N-(4-((4-methyl-1-piperazinyl)methyl)phenyl)-1H-3-pyrazolecarboxamide] | 64.4 | 0.26 | 4.95 | 3.84 | 76.2 |  |  |  | 274 to 276 | MIC [11]: 2.73 µg/mL (≈ 6.1 µM); MIC (Candida parapsilosis): 6.47 µg/mL (≈ 14.5 µM); MIC (Candida tropicalis): 4.21 µg/mL (≈ 9.41 µM); MIC (Cryptococcus neoformans): 7.81 µg/mL (≈ 17.4 µM); Severity of tomato leaf blight (Phytophthora infestans; 0.0001 (unit not given)): +++ (40-60% blight); Severity of tomato leaf blight (Phytophthora infestans; 0.001 (unit not given)): ++ (15-40% blight); Severity of tomato leaf blight (Phytophthora infestans; 0.01 (unit not given)): + (0-15% blight); Severity of tomato leaf blight (Phytophthora infestans; 0.1 (unit not given)): −
CN1CCN(Cc2ccc(NC(=O)c3n[nH]cc3Nc3ccnc4ccoc34)cc2)CC1 [Compound I-39, 4-(7-furo[3,2-b]pyridylamino)-N-(4-((4-methyl-1-piperazinyl)methyl)phenyl)-1H-3-pyrazolecarboxamide] | 42.1 |  |  |  | 37.6 | > 200 | > 200 | > 200 | 268 to 270 | 
